Among the data in publication PMC8041284, “Tunable Methacrylamides for Covalent Ligand Directed Release Chemistry” (Journal of the American Chemical Society, 2021) are inhibition values, retold here.

Structures are written as SMILES. *1 amine or outer side, *2 acyl side, *3 side chain or, on linkers, in order; H or OH if unused. Where a SMILES comes first, the peptide text is derived from it. Bridges are numbered along the chain shown (N, C = ends). Roman numbers before positions name the chains, in order. [ ]: non-standard residue; d: D form. Hexamethylenediamine = C(CCCN[*:2])CCN[*:1]; Dip = N[C@H](C(=O)O)C(c1ccccc1)c1ccccc1; Chg = N[C@H](C(=O)O)C1CCCCC1; NMeA = CN[C@@H](C)C(=O)O

The inhibition is the change of the read-out against control, counted positive when it falls.

Sequence of BTK (Q06187 402-655 limits assumed): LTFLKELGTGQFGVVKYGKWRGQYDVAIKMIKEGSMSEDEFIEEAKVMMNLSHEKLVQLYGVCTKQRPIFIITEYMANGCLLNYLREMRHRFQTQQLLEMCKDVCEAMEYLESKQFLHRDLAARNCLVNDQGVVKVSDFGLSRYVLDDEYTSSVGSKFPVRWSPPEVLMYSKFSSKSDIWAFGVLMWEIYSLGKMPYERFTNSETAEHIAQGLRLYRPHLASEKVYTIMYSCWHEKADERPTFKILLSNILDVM

The assay has as its target BTK (Homo sapiens, UniProt Q06187). The assay can be described thus: biochemical. To be noted: read-out: BTK inhibition (%), 0.75 uM BTK, […] probe 3l, 15 min preincubation.
On to `C/C=C(\C)C(=O)O` [PCM-0215012], for which the inhibition at 10 µM was 15.6%.
Turning to `COc1cc(CCC(=O)CC(=O)CCc2ccc(O)c(OC)c2)ccc1O` [PCM-0216226], the inhibition at 10 µM is -7%.
Next, `NCC(=O)Nc1ccc(-n2nc(C(F)(F)F)cc2-c2ccc3c(ccc4ccccc43)c2)cc1` [PCM-0094886]: 70.3%; `CCCCC[C@](C)(O)/C=C/[C@@H]1[C@@H](C/C=C\CCCC(=O)O)[C@@H](O)C[C@H]1O` [PCM-0216577]: -3.9%.
Regarding `CN[C@H]1CN(c2ccc3c(=O)c(C(=O)O)cn(-c4nccs4)c3n2)C[C@@H]1OC` [PCM-0215713], the inhibition at 10 µM is -17%.
Next, `O=S(=O)(c1ccc2c(c1)C(=NO)c1cc(S(=O)(=O)N3CCCCC3)ccc1-2)N1CCCCC1` [PCM-0215952]: -18.5%; `C[C@@H]1CC[C@@]2(OC1)O[C@H]1C[C@H]3[C@@H]4CC=C5C[C@@H](O)C[C@@H](O)[C@]5(C)[C@H]4CC[C@]3(C)[C@H]1[C@@H]2C` [PCM-0216451]: -20.8%.
For `COC(=O)Nc1nc2ccc(Sc3ccccc3)cc2[nH]1` [PCM-0085863], the inhibition at 10 µM is -7%.
Next, `C[C@@H]1O[C@@H](Oc2c(-c3cc(O)c(O)c(O)c3)oc3cc(O)cc(O)c3c2=O)[C@H](O)[C@H](O)[C@H]1O` [PCM-0089676]: -2.3%; `CN[C@@H](C)C(=O)N[C@H](C(=O)N1CCC[C@H]1c1nc(C(=O)c2ccc(F)cc2)cs1)C1CCCCC1` [PCM-0215366]: -11.6%.
For the compound `OC[C@H]1NC[C@H](O)[C@@H](O)[C@@H]1O` [PCM-0214950], the inhibition at 10 µM was -9.3%.
Regarding `O=C(NO)c1ccc(CC(=O)N(CCO)c2ccccc2)cc1` [PCM-0215415], the inhibition at 10 µM is 10.8%.
Next, `CN1CC[C@@H](NC(=O)Nc2ccc(C#N)cc2)C[C@@H]1c1nc2ccccc2[nH]1` [PCM-0215365]: -3.9%.
As for `Cc1ccc(=O)n(-c2ccccc2)c1` [PCM-0064803], the figure is 20.7%.
Next, `NC(=O)c1ccc(-c2nc(-c3ccc4c(c3)OCO4)c(-c3ccccn3)[nH]2)cc1` [PCM-0095013]: 12.4%.
On to `c1nc2nc(Nc3ccc(N4CCOCC4)cc3)nc(NC3CCCCC3)c2[nH]1` [PCM-0215406], for which the inhibition at 10 µM stood at 101%.
For `CC(C)(C)NC(=O)c1cncn1C1CCN(c2ccc(-c3nnc(C(F)(F)F)o3)cn2)CC1` [PCM-0215700], the inhibition at 10 µM was -12.4%.
Next, `N#Cc1ccc(C(c2ccc(C#N)cc2)n2cncn2)cc1` [PCM-0086304]: -2.1%; `CN[C@@H](C)C(=O)N[C@H](C(=O)N1CCC[C@H]1C(=O)N[C@H](C(=O)NCCCCCCNC(=O)[C@@H](NC(=O)[C@@H]1CCCN1C(=O)[C@@H](NC(=O)[C@H](C)NC)C1CCCCC1)C(c1ccccc1)c1ccccc1)C(c1ccccc1)c1ccccc1)C1CCCCC1` [PCM-0214574] (I: H-[NMeA][Chg]P[Dip] / II: H-[NMeA][Chg]P[Dip]; linker I:C-II:C via Hexamethylenediamine): -1.5%.
Next, `Nc1[nH]c(=O)nc2c1ncn2[C@@H]1O[C@H](CO)[C@@H](O)[C@H]1O` [PCM-0216517]: -11.6%.
As for `N#CC(C#N)=Cc1ccc(O)c(O)c1` [PCM-0064867], the figure is 54.5%; as for `O=C1C=CC[C@@H]2[C@H]3CCCN4CCC[C@@H](CN12)[C@@H]34` [PCM-0094851], 13.2%; as for `CCc1nc(N)nc(N)c1-c1ccc(Cl)cc1` [PCM-0085830], -13.2%.
As to `CN1CCN(C(=O)/C=C/c2ccc([N+](=O)[O-])o2)CC1` [PCM-0215590], the inhibition at 10 µM came out at 4.6%.
As for `Nc1ccc(S(N)(=O)=O)cc1` [PCM-0086364], the figure is -9.3%; as for `COCCOc1nc(-c2ccc(Cl)c(Cl)c2)n(-c2ccc(NC(=O)CCl)cc2)n1` [PCM-0215327], 106%; as for `CC(C)(C)C(=O)Nc1ccc2c(c1)C(=O)C(=O)c1ccccc1-2` [PCM-0215348], 10.8%.
On to `O=C(Nc1ccccc1)c1cc([N+](=O)[O-])ccc1Cl` [PCM-0065623], for which the inhibition at 10 µM worked out at 0.8%.
As for `c1ccc2c(CC3=NCCN3)cccc2c1` [PCM-0085846], the inhibition at 10 µM is -13.2%.
Next, `Cn1c(=O)c2[nH]cnc2n(C)c1=O` [PCM-0064445]: -24.9%; `CC(C)=CCC/C(C)=C/C=O` [PCM-0215914]: -17%; `Cc1ccc(-c2cc(C(F)(F)F)nn2-c2ccc(S(N)(=O)=O)cc2)cc1` [PCM-0065035]: 22.8%.
As to `COc1ccc2c3c1O[C@H]1C[C@@H](O)C=C[C@@]31CCN(C)C2` [PCM-0086015], the inhibition at 10 µM is -17.1%.
For `C[C@@H](c1ncncc1F)[C@](O)(Cn1cncn1)c1ccc(F)cc1F` [PCM-0214624], the inhibition at 10 µM is 2.3%.
On to `O=C(c1cncc(Br)c1)N1CCC(N2CCCC2)CC1` [PCM-0095791], for which the inhibition at 10 µM came out at 5.4%.
Next, `CN1Cc2c(ccc3c2OCO3)[C@@]2(C)[C@@H](O)Cc3cc4c(cc3[C@@H]12)OCO4` [PCM-0216379]: -2.3%; `CC(C)c1cc2c(cc1S(=O)(=O)O)[C@@]1(C)CCC[C@@](C)(C(=O)O)[C@@H]1CC2` [PCM-0216123]: 3.9%; `NS(=O)(=O)c1cc2c(cc1Cl)NC=NS2(=O)=O` [PCM-0064466]: -10.1%.
In the case of `CN1C(C(=O)Nc2ccccn2)=C(O)c2sc(Cl)cc2S1(=O)=O` [PCM-0090258], the inhibition at 10 µM is -0.9%.
As for `COC(=O)N[C@H](C(=O)N1CCC[C@H]1c1ncc(-c2ccc3c(c2)O[C@@H](c2ccccc2)n2c-3cc3cc(-c4cnc([C@@H]5CCCN5C(=O)[C@@H](NC(=O)OC)C(C)C)[nH]4)ccc32)[nH]1)C(C)C` [PCM-0216642], the inhibition at 10 µM turned out to be 52.5%.
On to `O[C@@H](CNC[C@H](O)[C@H]1CCc2cc(F)ccc2O1)[C@@H]1CCc2cc(F)ccc2O1` [PCM-0095721], for which the inhibition at 10 µM is -14%.
Next, `C[C@H](N)C(=O)O` [PCM-0216222]: -4.3%; `COc1ccc([C@@H]2CC(=O)c3c(O)cc(O)cc3O2)cc1O` [PCM-0091279]: -11.7%; `C[C@H]1COC2=C1C(=O)C(=O)c1c2ccc2c1CCCC2(C)C` [PCM-0091097]: 15.6%.
As for `COc1ccc(-c2ccc3cc(C(=O)O)ccc3c2)cc1C12CC3CC(CC(C3)C1)C2` [PCM-0090276], the figure is 29%; as for `CCOC(=O)[C@H](CCc1ccccc1)N[C@H]1CS[C@H](c2cccs2)CN(CC(=O)O)C1=O` [PCM-0095261], -1.6%.
Next, `COc1ccc2cc3[n+](cc2c1O)CCc1cc2c(cc1-3)OCO2` [PCM-0216489]: 97.3%; `Cn1cc(C2=C(c3cn(C4CCN(Cc5ccccn5)CC4)c4ccccc34)C(=O)NC2=O)c2ccccc21` [PCM-0094982]: 10.3%.
For `CCCCOCc1ccc(O)c(OC)c1` [PCM-0215915], the inhibition at 10 µM is -15.6%.
Take `CC(C)N(CC[C@H](c1ccccc1)c1cc(CO)ccc1O)C(C)C` [PCM-0095530]: the inhibition at 10 µM is 3.9%.
As for `COCCOc1cnc2ccn([C@H](C)c3nnc4c(F)cc(-c5cnn(C)c5)cn34)c(=O)c2c1` [PCM-0215653], the figure is 15.9%; as for `Cc1nccn1CCC(C(N)=O)(c1ccccc1)c1ccccc1` [PCM-0216555], 1.5%.
With `COc1cc(C[C@H](C)[C@H](C)Cc2ccc3c(c2)OCO3)ccc1O` [PCM-0216424], the inhibition at 10 µM was 68.7%.
In the case of `CO[C@H]1/C=C/O[C@@]2(C)Oc3c(C)c(O)c4c(O)c(c5c(c4c3C2=O)=NC2(CCN(CC(C)C)CC2)N=5)NC(=O)/C(C)=C\C=C\[C@H](C)[C@H](O)[C@@H](C)[C@@H](O)[C@@H](C)[C@H](OC(C)=O)[C@@H]1C` [PCM-0095185], the inhibition at 10 µM amounted to 7%.
Next, `CC1=C(C(=O)Nc2ccc3[nH]ncc3c2)C(c2ccc(F)cc2)NC(=O)N1` (centres unmarked) [PCM-0215810]: 19.3%.
Next, `CC1(C)OCCn2c1nc1c(N3CCOCC3)nc(-c3cnc(N)nc3)nc12` [PCM-0215737]: 37.9%; `CC(=O)O[C@@H]1CC[C@@]2(C)[C@@H](CC[C@]3(C)[C@@H]2C(=O)C=C2[C@@H]4[C@@H](C)[C@H](C)CC[C@]4(C)CC[C@]23C)[C@@]1(C)C(=O)O` [PCM-0216599]: 88%; `COc1cc(S(=O)(=O)O)ccc1O` [PCM-0215143]: -7%.
In the case of `CC1(C)C=Cc2cc(-c3coc4cc(O)ccc4c3=O)ccc2O1` [PCM-0216531], the inhibition at 10 µM was found to be 28.6%.
As for `C[C@]12C=CC(=O)N[C@@H]1CC[C@@H]1[C@@H]2CC[C@]2(C)[C@@H](C(=O)Nc3cc(C(F)(F)F)ccc3C(F)(F)F)CC[C@@H]12` [PCM-0214606], the figure is -4.7%; as for `C[C@@H](c1ccc2nccn2c1)n1nnc2ncc(-c3cnn(C)c3)nc21` [PCM-0215934], -9.3%.
Consider `O=C1CCCC(=O)C1C(=O)c1ccc(C(F)(F)F)cc1[N+](=O)[O-]` [PCM-0216128], for which the inhibition at 10 µM was -10%.
Next, `FC(F)(F)c1ccc(/C=C/c2nc(COc3ccc(CCCCn4ccnn4)cc3)co2)cc1` [PCM-0095252]: 13.1%.
As to `Cc1ccc(C(=O)Nc2ccc(Oc3cc4cnn(C)c4cc3-c3cn[nH]c3)c(F)c2)c(=O)n1-c1ccc(F)cc1` [PCM-0215736], the inhibition at 10 µM was determined as 105%.
As for `CCCCCCCCN=c1ccn(CCCCCCCCCCn2ccc(=NCCCCCCCC)cc2)cc1` [PCM-0215117], the figure is -64.1%; as for `O=C(O)c1cc(C(=O)O)c(C(=O)N(Cc2cccc(Oc3ccccc3)c2)[C@H]2CCCc3ccccc32)cc1C(=O)O` [PCM-0215841], 13.1%.
Next, `C[C@H]1C[C@@H]2[C@H]([C@@H](O)C[C@@]3(C)[C@H]2CC[C@]3(O)C(=O)CO)[C@@]2(C)C=CC(=O)C=C12` [PCM-0085838]: 9%.
Next, `COc1ccc(C(=O)Nc2sc3c(c2C(N)=O)CCCC3)cc1OC` [PCM-0095611]: 6.9%.
